Data on 5 compounds can be found in ChEMBL document CHEMBL5647693, “Molecular basis underlying resistance to Mps1/TTK inhibitors” (Oncogene, 2016).

Common to all, as to assay: cells
Format in all cases: functional, cell-based

In assay [1] the test system is HCT-116. The conditions noted are these: Homo sapiens, HCT-116, 120 h.
Assay [2] relates to HeLa. The conditions noted are these: Homo sapiens, 120 h.
Assay [3] deals with DLD-1. The note with it: Homo sapiens, DLD-1, 120 h.
For assay [4], the system named is HeLa. The note with it: Homo sapiens, 120 h. The source holds these as a separate data set.
For assay [5], the system named is HeLa. The conditions noted are these: Homo sapiens, 120 h. The source holds these as a separate data set.
A further assay deals with U2OS. The conditions noted are these: Homo sapiens, 120 h.
Assay [6] has as its system HCT-116. The conditions noted are these: Homo sapiens, HCT-116, 120 h. The source holds these as a separate data set.
Assay [7] deals with HCT-116. The note with it: Homo sapiens, HCT-116, 120 h. The source holds these as a separate data set.
Assay [8] deals with HCT-116. The conditions noted are these: Homo sapiens, HCT-116, 120 h. This is another data set of the same source.
Assay [9] deals with DLD-1. The conditions noted are these: Homo sapiens, DLD-1, 120 h. The source holds these as a separate data set.
Assay [10] has as its system HeLa. The note with it: Homo sapiens, 120 h. The source holds these as a separate data set.
Assay [11] concerns DLD-1. The conditions noted are these: Homo sapiens, DLD-1, 120 h. The source holds these as a separate data set.

Where only a bound is given, the exact number is not on record here.

As to `CCc1cccc(CC)c1NC(=O)c1nn(C)c2c1CCc1cnc(Nc3ccc(C(=O)NC4CCN(C)CC4)cc3OC(F)(F)F)nc1-2`, the IC50 (as a rule, the concentration needed to halve the response being measured) was 154 nM in the assay with HCT-116 [1]; 1720 nM with HeLa [2]; 1020 nM in the assay with DLD-1 [3]; 1330 nM in the assay with HeLa [4]; 433 nM in the assay on HeLa [5]; 153 nM in the assay on U2OS. Moreover, the IC50 was 1620 nM in the assay on HCT-116 [6]; 171 nM in the assay on HCT-116 [7]; over 2000 nM with HCT-116 [8]; 198 nM with DLD-1 [9]; over 2000 nM in the assay with HeLa [10]; 165 nM in the assay with DLD-1 [11].
On to `Cc1cc(N2CCOCC2)ccc1Nc1nc(NC2CCCCC2)c2nc[nH]c2n1`, for which the half-maximal inhibitory concentration (IC50) was 63 nM with HCT-116 [1]; over 2000 nM with HeLa [2]; over 2000 nM with DLD-1 [3]; 468 nM in the assay with HeLa [4]; 282 nM in the assay with HeLa [5]; 106 nM in the assay on U2OS. Moreover, the IC50 in the assay on HCT-116 [6] is 1080 nM; in the assay on HCT-116 [7], 159 nM; in the assay on HCT-116 [8] it was over 2000 nM; in the assay with DLD-1 [9], 183 nM; in the assay with HeLa [10], over 2000 nM; in the assay with DLD-1 [11], 75.4 nM.
`COc1cc(N2CCC(O)CC2)ccc1Nc1nc(Nc2ccccc2S(=O)(=O)C(C)C)c2nc[nH]c2n1`: the concentration for half-maximal inhibition (IC50) turned out to be 6790 nM in the assay on HeLa [2]; 7930 nM in the assay on DLD-1 [3]; 4790 nM in the assay on HeLa [4]; 3420 nM with HeLa [5]; 3230 nM in the assay with HCT-116 [6]; 1620 nM with HCT-116 [7]. For the same compound, the values for the 50% inhibitory concentration (IC50) with HCT-116 [8], in the assay with DLD-1 [9] and with HeLa [10] were 5400 nM, 2420 nM and 8970 nM, respectively.
As for `c1nc2c(NC3CCCCC3)nc(Nc3ccc(N4CCOCC4)cc3)nc2[nH]1` [REVERSINE], the half-maximal inhibitory concentration (IC50) in the assay with HCT-116 [1] is 78.9 nM; in the assay with HeLa [2] it was 125 nM; with DLD-1 [3] it was over 2000 nM; in the assay with HeLa [4], 431 nM; in the assay with HeLa [5] it was 290 nM; in the assay with U2OS, 154 nM. For the same compound, the IC50 in the assay on HCT-116 [6] was found to be 530 nM; with HCT-116 [7] it was 138 nM; in the assay with HCT-116 [8], 70 nM; with DLD-1 [9], 136 nM; in the assay on HeLa [10], 116 nM; in the assay on DLD-1 [11] it was 120 nM.
Consider `COc1cc(OC2CCN(C)CC2)ccc1Nc1ncc2c(n1)n(C1CCCC1)c(=O)n2C`, for which the IC50 with HeLa [2] was 2740 nM; in the assay with DLD-1 [3], over 5000 nM; in the assay on HeLa [4], 3850 nM; in the assay with HeLa [5] it was 1340 nM; in the assay with HCT-116 [6], 3060 nM; in the assay with HCT-116 [7], 560 nM. Further, the IC50 is over 5000 nM in the assay with HCT-116 [8], 719 nM in the assay with DLD-1 [9] and over 5000 nM in the assay with HeLa [10].
